In ChEMBL document CHEMBL1133572, “Protease inhibitors: current status and future prospects” (J Med Chem, 2000):
In brackets after ≈: the same amount, converted by molar mass. Residues, ends and D or L forms follow the SMILES beside them. *: point of attachment. Cbz = O=C(OCc1ccccc1)*; CHN2 = [N-]=[N+]=C*

Columns and labels:
Cathepsin S = Cathepsin S (Homo sapiens, UniProt P25774); experiment: The apparent binding affinity against cathepsin S.; settings: read-out: Ki app
Cathepsin K = Cathepsin K (Homo sapiens, UniProt P43235); experiment: The apparent binding affinity against cathepsin K.; settings: read-out: Ki app
Cathepsin B = Cathepsin B (Homo sapiens, UniProt P07858)
Procathepsin L [1] = target: T1, Procathepsin L (Homo sapiens, UniProt P07711)
Tryptase = Tryptase (Homo sapiens, UniProt Q9BZJ3+Q15661+Q9NRR2); experiment: Binding affinity against Tryptase.; assay type: protein assay
[2] = The irreversible inhibitor activity by second order rate equation.; assay type: ADME
Coagulation factor X = Coagulation factor X (Homo sapiens, UniProt P00742)
[3] = Oral bioavailability in dog; assay type: ADME, organism-based, Canis lupus familiaris; settings: in vivo
Serine protease 1 [4] = target: T2, Serine protease 1 (Homo sapiens, UniProt P07477)
[5] = target: T3, Calpain-1 catalytic subunit (Homo sapiens, UniProt P07384); experiment: The binding affinity against calpain.
T3 sequence (P07384 whole entry): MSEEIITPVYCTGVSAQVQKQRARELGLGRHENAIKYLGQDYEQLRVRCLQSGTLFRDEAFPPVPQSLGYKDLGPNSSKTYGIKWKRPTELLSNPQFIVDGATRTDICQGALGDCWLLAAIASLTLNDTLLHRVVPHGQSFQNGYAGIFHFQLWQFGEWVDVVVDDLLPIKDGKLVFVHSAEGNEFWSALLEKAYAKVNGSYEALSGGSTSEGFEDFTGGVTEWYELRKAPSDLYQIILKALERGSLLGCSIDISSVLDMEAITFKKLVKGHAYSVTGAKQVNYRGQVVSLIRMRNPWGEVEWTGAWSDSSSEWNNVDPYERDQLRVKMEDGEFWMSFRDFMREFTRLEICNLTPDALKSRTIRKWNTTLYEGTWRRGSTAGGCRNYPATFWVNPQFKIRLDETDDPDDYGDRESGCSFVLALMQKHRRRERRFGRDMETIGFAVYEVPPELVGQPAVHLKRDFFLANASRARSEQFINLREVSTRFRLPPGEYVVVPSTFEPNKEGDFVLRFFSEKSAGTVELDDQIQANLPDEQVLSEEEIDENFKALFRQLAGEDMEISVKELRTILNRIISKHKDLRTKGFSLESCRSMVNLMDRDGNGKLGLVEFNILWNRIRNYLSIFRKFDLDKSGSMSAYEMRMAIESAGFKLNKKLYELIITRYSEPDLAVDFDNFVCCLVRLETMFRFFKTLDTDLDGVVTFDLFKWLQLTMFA

[6] = target: T4, Angiotensin-converting enzyme (Homo sapiens, UniProt P12821)
Neprilysin = target: T5, Neprilysin (Rattus norvegicus, UniProt P07861)
T5 sequence (P07861 whole entry): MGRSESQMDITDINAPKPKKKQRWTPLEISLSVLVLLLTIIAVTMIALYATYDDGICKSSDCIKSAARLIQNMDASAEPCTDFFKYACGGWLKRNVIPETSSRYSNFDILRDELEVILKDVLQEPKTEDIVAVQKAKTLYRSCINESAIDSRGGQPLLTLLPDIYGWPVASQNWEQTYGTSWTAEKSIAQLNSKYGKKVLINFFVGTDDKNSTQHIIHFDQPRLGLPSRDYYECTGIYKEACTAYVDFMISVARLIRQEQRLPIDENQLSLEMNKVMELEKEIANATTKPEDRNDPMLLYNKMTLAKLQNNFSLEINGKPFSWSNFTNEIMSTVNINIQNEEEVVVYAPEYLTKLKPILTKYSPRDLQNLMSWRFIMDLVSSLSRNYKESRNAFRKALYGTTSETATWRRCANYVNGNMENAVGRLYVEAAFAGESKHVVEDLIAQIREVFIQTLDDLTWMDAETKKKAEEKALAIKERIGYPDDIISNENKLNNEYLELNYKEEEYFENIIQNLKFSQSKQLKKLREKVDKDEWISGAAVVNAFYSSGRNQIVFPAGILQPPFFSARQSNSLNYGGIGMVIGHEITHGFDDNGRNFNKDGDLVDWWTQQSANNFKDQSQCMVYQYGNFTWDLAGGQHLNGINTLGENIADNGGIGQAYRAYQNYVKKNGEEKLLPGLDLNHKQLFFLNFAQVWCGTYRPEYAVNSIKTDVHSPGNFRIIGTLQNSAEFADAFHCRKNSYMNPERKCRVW

Procathepsin L [7] = target: T1, Procathepsin L; experiment: Inhibitory activity against cathepsin L, lysosomal cysteine protease
Caspase-1 = target: T6, Caspase-1 (Homo sapiens, UniProt P29466)
T6 sequence (P29466 whole entry): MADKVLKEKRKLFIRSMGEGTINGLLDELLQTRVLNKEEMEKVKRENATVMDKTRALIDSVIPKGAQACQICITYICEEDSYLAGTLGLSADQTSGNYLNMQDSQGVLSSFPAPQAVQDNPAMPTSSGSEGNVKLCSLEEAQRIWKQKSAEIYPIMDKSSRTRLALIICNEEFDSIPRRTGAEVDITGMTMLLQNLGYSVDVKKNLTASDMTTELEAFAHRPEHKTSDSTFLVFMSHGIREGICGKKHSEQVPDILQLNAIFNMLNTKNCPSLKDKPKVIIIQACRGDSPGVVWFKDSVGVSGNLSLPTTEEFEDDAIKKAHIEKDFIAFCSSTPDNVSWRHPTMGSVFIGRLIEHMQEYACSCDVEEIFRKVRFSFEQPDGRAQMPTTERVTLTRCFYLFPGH

Stromelysin-1 = Stromelysin-1 (Homo sapiens, UniProt P08254)
[8] = target: 72 kDa type IV collagenase (Homo sapiens, UniProt P08253)
Interstitial collagenase = target: T7, Interstitial collagenase (Homo sapiens, UniProt P03956)
T7 sequence (P03956 whole entry): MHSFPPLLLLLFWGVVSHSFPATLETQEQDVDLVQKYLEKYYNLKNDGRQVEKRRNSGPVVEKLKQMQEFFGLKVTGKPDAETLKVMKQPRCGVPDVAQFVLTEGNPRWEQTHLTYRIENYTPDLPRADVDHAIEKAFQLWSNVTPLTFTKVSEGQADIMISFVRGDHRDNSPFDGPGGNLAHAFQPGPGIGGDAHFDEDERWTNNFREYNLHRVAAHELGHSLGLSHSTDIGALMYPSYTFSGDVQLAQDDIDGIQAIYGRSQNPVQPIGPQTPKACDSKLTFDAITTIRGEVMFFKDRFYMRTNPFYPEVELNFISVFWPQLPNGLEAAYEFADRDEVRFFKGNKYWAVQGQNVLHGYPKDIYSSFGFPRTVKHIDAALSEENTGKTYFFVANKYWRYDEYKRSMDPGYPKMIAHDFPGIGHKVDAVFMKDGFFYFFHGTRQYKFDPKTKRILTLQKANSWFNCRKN

[9] = Inhibitory concentration against Chymotrypsinogen
[10] = Inhibitory concentration against Elastase
Plasminogen = Plasminogen (Rattus norvegicus, UniProt Q01177); experiment: Inhibitory concentration against Plasmin
Serine protease 1 [11] = target: T2, Serine protease 1; experiment: Inhibitory concentration against Trypsin
Matrilysin = Matrilysin (Homo sapiens, UniProt P09237); experiment: Inhibition of matrix metalloprotease-7 (MMP-7).
[12] = Oral bioavailability in human; assay type: ADME, organism-based; settings: in vivo
[13] = target: T4, Angiotensin-converting enzyme; experiment: oral activity against angiotensin -converting enzyme ( ACE) and neutral endopeptidase in mouse.

T1 sequence (P07711 whole entry): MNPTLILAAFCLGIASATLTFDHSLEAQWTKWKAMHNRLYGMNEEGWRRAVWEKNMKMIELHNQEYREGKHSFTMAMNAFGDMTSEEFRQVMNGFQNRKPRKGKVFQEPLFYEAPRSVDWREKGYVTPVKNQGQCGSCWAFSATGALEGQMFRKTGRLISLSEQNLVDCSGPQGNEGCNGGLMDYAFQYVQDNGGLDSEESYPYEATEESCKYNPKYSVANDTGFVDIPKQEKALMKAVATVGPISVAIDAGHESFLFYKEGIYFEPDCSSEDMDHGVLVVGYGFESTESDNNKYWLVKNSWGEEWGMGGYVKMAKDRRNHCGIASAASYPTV
Chain of Stromelysin-1 (P08254 whole entry): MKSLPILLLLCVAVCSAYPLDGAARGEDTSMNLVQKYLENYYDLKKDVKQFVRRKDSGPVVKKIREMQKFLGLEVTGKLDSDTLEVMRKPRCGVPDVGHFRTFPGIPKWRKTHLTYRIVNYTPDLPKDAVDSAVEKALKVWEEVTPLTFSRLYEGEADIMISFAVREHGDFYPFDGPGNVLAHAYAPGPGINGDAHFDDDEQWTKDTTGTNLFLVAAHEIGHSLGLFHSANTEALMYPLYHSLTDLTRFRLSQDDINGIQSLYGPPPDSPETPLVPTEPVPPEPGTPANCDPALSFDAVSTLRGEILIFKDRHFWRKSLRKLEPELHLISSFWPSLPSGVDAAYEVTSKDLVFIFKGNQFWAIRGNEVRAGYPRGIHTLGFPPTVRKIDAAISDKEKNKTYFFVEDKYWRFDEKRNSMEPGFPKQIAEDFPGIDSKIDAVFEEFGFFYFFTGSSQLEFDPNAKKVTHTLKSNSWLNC
T2 sequence (P07477 whole entry): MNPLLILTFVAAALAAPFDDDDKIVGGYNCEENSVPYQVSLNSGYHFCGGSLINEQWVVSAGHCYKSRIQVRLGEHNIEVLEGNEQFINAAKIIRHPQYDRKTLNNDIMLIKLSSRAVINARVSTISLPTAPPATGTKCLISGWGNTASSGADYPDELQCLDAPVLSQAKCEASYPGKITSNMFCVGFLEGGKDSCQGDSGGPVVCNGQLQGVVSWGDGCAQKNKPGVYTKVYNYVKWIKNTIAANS
T4 sequence (P12821 whole entry): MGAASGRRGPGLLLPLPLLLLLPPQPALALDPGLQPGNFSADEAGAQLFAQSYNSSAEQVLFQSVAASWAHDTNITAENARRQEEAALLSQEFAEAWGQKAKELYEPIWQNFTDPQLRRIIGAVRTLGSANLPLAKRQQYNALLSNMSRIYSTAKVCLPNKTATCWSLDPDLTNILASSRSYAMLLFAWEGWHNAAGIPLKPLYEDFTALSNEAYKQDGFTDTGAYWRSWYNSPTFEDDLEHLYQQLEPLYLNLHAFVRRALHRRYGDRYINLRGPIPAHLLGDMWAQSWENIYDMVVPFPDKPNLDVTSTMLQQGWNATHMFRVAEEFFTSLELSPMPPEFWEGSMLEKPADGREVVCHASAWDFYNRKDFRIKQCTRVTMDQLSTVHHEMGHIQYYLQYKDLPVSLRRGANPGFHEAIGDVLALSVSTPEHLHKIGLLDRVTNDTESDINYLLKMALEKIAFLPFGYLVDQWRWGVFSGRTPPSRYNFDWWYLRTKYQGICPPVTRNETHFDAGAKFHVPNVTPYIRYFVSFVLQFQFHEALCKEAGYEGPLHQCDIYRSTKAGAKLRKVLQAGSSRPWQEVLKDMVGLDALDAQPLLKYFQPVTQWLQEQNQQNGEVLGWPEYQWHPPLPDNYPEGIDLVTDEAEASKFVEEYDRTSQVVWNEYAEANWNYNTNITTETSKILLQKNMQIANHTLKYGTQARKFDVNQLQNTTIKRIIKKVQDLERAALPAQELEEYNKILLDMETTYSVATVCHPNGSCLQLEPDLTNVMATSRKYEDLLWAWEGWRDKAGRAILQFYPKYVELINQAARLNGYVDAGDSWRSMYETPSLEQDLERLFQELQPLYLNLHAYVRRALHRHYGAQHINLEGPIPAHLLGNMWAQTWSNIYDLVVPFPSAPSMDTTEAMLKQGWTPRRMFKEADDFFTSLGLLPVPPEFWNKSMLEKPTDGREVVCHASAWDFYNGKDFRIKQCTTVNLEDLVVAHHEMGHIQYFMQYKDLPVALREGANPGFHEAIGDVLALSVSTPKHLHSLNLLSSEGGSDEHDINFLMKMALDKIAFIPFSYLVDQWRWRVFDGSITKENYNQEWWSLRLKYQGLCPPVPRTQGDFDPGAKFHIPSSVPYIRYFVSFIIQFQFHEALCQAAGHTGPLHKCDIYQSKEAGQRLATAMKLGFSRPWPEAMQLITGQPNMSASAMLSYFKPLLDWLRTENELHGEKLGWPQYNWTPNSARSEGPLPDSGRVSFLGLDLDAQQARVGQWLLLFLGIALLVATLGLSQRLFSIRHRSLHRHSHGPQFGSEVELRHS
Chain of Cathepsin K (P43235 whole entry): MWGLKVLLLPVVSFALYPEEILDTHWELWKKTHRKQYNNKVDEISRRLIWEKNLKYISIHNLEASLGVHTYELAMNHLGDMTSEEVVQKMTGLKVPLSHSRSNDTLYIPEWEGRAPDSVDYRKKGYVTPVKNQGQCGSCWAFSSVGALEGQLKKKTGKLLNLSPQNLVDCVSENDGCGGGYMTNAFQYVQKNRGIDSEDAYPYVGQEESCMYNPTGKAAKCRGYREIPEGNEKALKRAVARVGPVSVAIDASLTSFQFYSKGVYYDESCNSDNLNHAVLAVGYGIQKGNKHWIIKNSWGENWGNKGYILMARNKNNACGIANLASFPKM
Chain of 72 kDa type IV collagenase (P08253 whole entry): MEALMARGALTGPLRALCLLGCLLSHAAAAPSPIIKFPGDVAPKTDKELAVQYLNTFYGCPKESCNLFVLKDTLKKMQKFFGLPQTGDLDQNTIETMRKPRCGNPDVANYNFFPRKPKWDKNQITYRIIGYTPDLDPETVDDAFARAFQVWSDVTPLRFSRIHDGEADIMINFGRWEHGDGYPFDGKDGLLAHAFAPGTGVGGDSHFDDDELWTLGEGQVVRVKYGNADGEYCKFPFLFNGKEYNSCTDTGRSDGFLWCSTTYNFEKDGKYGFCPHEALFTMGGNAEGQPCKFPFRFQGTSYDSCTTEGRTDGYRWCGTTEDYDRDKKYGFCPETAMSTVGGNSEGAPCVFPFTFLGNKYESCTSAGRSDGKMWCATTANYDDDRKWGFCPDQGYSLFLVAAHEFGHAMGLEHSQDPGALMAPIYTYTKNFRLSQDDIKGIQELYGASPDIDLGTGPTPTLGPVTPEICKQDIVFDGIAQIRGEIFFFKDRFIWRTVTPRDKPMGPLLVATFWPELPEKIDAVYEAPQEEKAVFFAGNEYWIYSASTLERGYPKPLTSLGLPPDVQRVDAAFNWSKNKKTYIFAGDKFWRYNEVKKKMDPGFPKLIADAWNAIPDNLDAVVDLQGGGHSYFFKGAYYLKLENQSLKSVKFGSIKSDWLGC
Chain of Plasminogen (Q01177 97-581 limits assumed): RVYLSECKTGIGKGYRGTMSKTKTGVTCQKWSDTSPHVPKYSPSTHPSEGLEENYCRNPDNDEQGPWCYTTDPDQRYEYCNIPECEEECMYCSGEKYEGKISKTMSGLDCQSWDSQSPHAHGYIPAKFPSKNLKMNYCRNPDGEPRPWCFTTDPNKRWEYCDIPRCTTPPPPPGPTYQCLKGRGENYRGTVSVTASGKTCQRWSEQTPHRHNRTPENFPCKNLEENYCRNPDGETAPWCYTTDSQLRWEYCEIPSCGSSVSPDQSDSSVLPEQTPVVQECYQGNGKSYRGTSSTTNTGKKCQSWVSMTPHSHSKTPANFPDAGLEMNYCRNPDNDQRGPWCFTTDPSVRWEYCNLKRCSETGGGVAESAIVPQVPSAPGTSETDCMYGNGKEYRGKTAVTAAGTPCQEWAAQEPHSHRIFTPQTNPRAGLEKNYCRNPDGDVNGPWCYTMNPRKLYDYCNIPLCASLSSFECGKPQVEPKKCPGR
Chain of Plasminogen (Q01177 582-812 limits assumed): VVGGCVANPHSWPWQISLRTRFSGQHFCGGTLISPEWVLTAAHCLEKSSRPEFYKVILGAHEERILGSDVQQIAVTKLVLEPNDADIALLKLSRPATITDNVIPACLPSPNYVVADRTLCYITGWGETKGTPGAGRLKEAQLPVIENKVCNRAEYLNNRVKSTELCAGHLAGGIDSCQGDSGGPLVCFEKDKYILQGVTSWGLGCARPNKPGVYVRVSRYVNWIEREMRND
Chain of Coagulation factor X (P00742 41-179 limits assumed): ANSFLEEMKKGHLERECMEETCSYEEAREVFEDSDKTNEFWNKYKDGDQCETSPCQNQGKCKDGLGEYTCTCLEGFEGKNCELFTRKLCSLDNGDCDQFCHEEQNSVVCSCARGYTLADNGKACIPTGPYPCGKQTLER
Chain of Coagulation factor X (P00742 235-488 limits assumed): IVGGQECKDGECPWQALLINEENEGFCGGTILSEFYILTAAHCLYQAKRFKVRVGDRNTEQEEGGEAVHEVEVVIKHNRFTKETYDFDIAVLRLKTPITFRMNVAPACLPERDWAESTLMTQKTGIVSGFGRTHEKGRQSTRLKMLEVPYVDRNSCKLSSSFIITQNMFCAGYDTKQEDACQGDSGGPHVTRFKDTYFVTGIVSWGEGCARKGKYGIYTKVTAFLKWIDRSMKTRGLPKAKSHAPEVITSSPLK
Chain of Cathepsin S (P25774 whole entry): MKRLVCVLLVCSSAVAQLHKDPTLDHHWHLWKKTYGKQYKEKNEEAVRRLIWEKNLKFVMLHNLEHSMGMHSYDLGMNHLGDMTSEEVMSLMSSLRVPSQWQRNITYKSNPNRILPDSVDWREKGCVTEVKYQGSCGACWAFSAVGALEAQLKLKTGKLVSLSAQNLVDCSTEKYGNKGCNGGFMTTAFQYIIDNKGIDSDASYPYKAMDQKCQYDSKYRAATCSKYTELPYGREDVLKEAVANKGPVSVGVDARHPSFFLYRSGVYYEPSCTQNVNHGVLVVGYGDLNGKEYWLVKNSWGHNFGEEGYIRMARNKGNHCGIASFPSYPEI

SMILES: CC(C)C[C@H](C(=O)NCC(=O)CNS(=O)(=O)c1ccc(Oc2ccccc2)cc1)c1cccc(-c2ccccc2)c1
- Ki (Cathepsin S): 910 nM
- Ki (Cathepsin K): 1.4 nM
- Ki (Cathepsin B): > 10000 nM
- Ki (Procathepsin L [1]): > 1000 nM

SMILES: N=C(N)NCCC[C@H](NC(=O)c1ccc2ccccc2c1O)C(=O)N1CCC[C@H]1C(N)=O
- Ki (Tryptase): 840 nM

SMILES: CC(C)C[C@H](NC(=O)[C@H]1O[C@@H]1C(=O)O)C(=O)N1CCC[C@H]1C(=O)OCc1ccccc1
- K second [2]: 8.7 M⁻¹ s⁻¹

SMILES: COC(=O)[C@H](Cc1cccc(C(=N)N)c1)[C@@H](/C=C/c1ccccc1)NC(=O)c1ccc(-c2ccc(OC)c(OC)c2)cc1
- IC50 (Coagulation factor X): 30 nM

SMILES: NC1CCC(CNC(=O)[C@@H]2CCCN2C(=O)[C@H](N)C(C2CCCCC2)C2CCCCC2)CC1 (some centres not stated)
- bioavailability [3]: 90%

SMILES: NCc1ccc(CNC(=O)CNC(=O)OCc2ccc(COC(=O)NCC(=O)NCc3ccc(CN)cc3)cc2)cc1
- Ki (Tryptase): 0.6 nM
- Ki (Serine protease 1 [4]): 84000 nM

SMILES: CC[C@H](NC(=O)[C@H](CC(C)C)NC(=O)OCc1ccccc1)C(=O)C(=O)NCCCN1CCOCC1
- Ki [5]: 41000 nM

SMILES: CC1(C)CCCC(NC(=O)[C@@H](S)Cc2ccccc2)C(=O)N1CC(=O)O (some centres not stated)
- IC50 [6]: 12 nM
- IC50 (Neprilysin): 63 nM

SMILES: O=C(O)C(CCc1ccccc1)N[C@@H](Cc1ccccc1)C(=O)NC[C@H](O)C(=O)O (some centres not stated)
- IC50 [6]: > 10000 nM
- IC50 (Neprilysin): 11 nM

SMILES: CCCCc1nc(Cl)c(CO)n1Cc1ccc(-c2ccccc2-c2nn[nH]n2)cc1 [LOSARTAN]
- IC50 [6]: 19 nM

SMILES: O=CC(Cc1ccccc1)NC(=O)C(Cc1ccccc1)NC(=O)OCc1ccccc1 (stereo not drawn) (Cbz-Phe-Phe-aldehyde; configuration not given here)
- IC50 (Procathepsin L [7]): 0.74 nM

SMILES: C[C@H](CSC(=O)c1ccccc1)C(=O)N1C[C@@H](Sc2ccccc2)C[C@H]1C(=O)O [ZOFENOPRIL]
- IC50 [6]: 0.4 nM

SMILES: CC(=O)N[C@@H](CC(=O)O)C(=O)N[C@H]1CCC[C@H]2SC[C@@H](C(=O)N[C@H]3CC(=O)OC3O)N2C1=O (some centres not stated)
- IC50 (Caspase-1): 10400 nM

SMILES: CC(C)C[C@@H](C=O)NC(=O)[C@H](CC(C)C)NC(=O)[C@H](CC(C)C)NC(=O)OCc1ccccc1 [MG-132] (Cbz-Leu-Leu-Leu-aldehyde)
- Ki (Cathepsin K): 1.4 nM

SMILES: CC1=CCN(C(=O)[C@H](Cc2ccc(C(=N)N)cc2)NS(=O)(=O)c2ccc3c(c2)CN(C)CC3)[C@@H](C(=O)O)C1
- bioavailability [3]: 45%
- Ki (Serine protease 1 [4]): 0.46 nM

SMILES: N=C(N)c1cccc(-c2cccc([C@H](CCCNc3ccncc3)C(=O)O)c2)c1
- IC50 (Coagulation factor X): 270 nM

SMILES: CNC(=O)[C@@H]1CCCCN(C(=O)OC(C)(C)C)CCC[C@H](C(=O)NO)[C@@H](CC(C)C)C(=O)N1
- Ki (Stromelysin-1): < 1 nM
- Ki [8]: < 3 nM
- Ki (Interstitial collagenase): < 1 nM

SMILES: CC(=O)OCCC/C(=C1/SC(=S)N(CC(=O)O)C1=O)c1ccc(Br)cc1
- IC50 [9]: 15.6 µg/mL (≈ 34 µM)
- IC50 [10]: > 50 µg/mL
- IC50 (Plasminogen): > 109000 nM
- IC50 (Serine protease 1 [11]): 39900 nM

SMILES: CNC(=O)[C@@H](NC(=O)[C@H](CCCCOc1ccccc1)CP(=O)(O)Cc1ccc(Cc2ccccc2)cc1)C(C)(C)C
- Ki (Stromelysin-1): 30 nM
- Ki (Interstitial collagenase): > 30000 nM

SMILES: CCOC(=O)[C@H](CCc1ccccc1)N[C@H]1CCc2ccccc2N(CC(=O)O)C1=O [BENAZEPRIL]
- IC50 [6]: 1.7 nM

SMILES: O=C(NC1CCC[C@H]2CCC[C@@H](C(=O)O)N2C1=O)[C@@H](S)Cc1ccccc1 (some centres not stated)
- IC50 [6]: 5 nM
- IC50 (Neprilysin): 8 nM

SMILES: O=C(NO)C1(CS(=O)(=O)c2ccc(Oc3ccc(Cl)cc3)cc2)CCOCC1 [CTS-1027]
- Ki (Matrilysin): 1200 nM
- Ki (Stromelysin-1): 9.3 nM
- Ki (Interstitial collagenase): 590 nM

SMILES: CCOC(=O)[C@H](CCc1ccccc1)N[C@@H](C)C(=O)N1[C@H](C(=O)O)C[C@@H]2CCC[C@@H]21
- IC50 [6]: 4 nM

SMILES: CCCCNC(=O)[C@@H](C[C@H](O)[C@H](CC1CCCCC1)NC(=O)[C@H](Cc1c[nH]cn1)NC(=O)[C@H](Cc1ccccc1)CS(=O)(=O)C(C)(C)C)C(C)C
- bioavailability [12]: < 1%

SMILES: COCCOCC(CC1(C(=O)N[C@H]2CC[C@@H](C(=O)O)CC2)CCCC1)C(=O)Oc1ccc2c(c1)CCC2 (some centres not stated)
- IC50 (Neprilysin): 28 nM

SMILES: CC(=O)SC[C@@H](Cc1ccc2c(c1)OCO2)C(=O)N[C@@H](C)C(=O)OCc1ccccc1
- ED50 [13]: 0.5 mg/kg

SMILES: CC(C)C[C@H](NC(=O)N1CCNCC1)C(=O)N[C@H](C/C=C/S(=O)(=O)c1ccccc1)CCc1ccccc1
- K second [2]: 5.7 M⁻¹ s⁻¹

SMILES: CC(C)C[C@H](NC(=O)OCc1ccccc1)C(=O)NC1CCN(S(=O)(=O)c2ccc(Oc3ccccc3)cc2)CC1=O (some centres not stated)
- Ki (Cathepsin B): > 1000 nM
- Ki (Procathepsin L [1]): > 1000 nM

SMILES: CC(/C=C/C=C/c1ccccc1)=C1/SC(=S)N(CC(=O)O)C1=O
- IC50 [9]: 10.8 µg/mL (≈ 31.3 µM)
- IC50 [10]: 21.6 µg/mL (≈ 62.5 µM)
- IC50 (Plasminogen): > 145000 nM
- IC50 (Serine protease 1 [11]): 36500 nM

SMILES: [N-]=[N+]=CC(=O)[C@H](Cc1ccccc1)NC(=O)[C@H](Cc1ccccc1)NC(=O)OCc1ccccc1 (Cbz-Phe-Phe-CHN2)
- IC50 (Procathepsin L [7]): 50 nM

SMILES: CCC(=O)O[C@@H](O[P@](=O)(CCCCc1ccccc1)CC(=O)N1C[C@H](C2CCCCC2)C[C@H]1C(=O)O)C(C)C [FOSINOPRIL]
- IC50 [6]: 1 nM

SMILES: CNC(=O)[C@@H](Cc1c(F)c(F)c(F)c(F)c1F)NC(=O)Nc1nnc(S)s1
- Ki [8]: 3000 nM
